In brackets after ≈: the same amount, converted by molar mass.
Details: 24 h, pH 7.4

Question: With `CC(=O)N1CCC(NC(=O)NC23CC4CC(CC(C4)C2)C3)CC1` [AR9281] as the compound, how does the Solubility read?
Answer: Its Solubility is 277 µg/mL (≈ 867 µM).

Source: paper PMC8399023 (Molecules, 2021)
